Measurements as given in patent publication US20230263822A1, “MODULATION OF FACTOR 11 EXPRESSION” (Ionis Pharmaceuticals, Inc., priority 2008, published 2023).
Strand notation (5' to 3'): a small letter for the sugar, then the base; units joined by * are phosphorothioate-linked, units joined directly phosphodiester-linked; [ ] holds rarer units or linkages, { } end groups; capitals alone tell only the bases. e = 2'-O-(2-methoxyethyl) (MOE); [5mC] = 5-methylcytosine; d = 2'-deoxy (DNA)

Legend:
blood coagulation = assay: PT and aPTT assay in cynomolgus monkeys (Example 45); type: in vivo; conditions: platelet poor plasma
Protocol: (§1) Groups, each consisting of two male and three female monkeys, were injected subcutaneously with ISIS 416838, ISIS 416850, ISIS 416858, ISIS 416864, or ISIS 417002 in escalating doses. Antisense oligonucleotide was administered to the monkeys at 5 mg/kg three times per a week for week 1; 5 mg/kg twice per week for weeks 2 and 3; 10 mg/kg three times per week for week 4; 10 mg/kg twice per week for weeks 5 and 6; 25 mg/kg three times per week for week 7; and 25 mg/kg twice per week for weeks 8, 9, 10, 11, and 12. One control group, consisting of two male and three female monkeys, was injected subcutaneously with PBS according to the same dosing regimen. An additional experimental group, consisting of two male and three female monkeys, was injected subcutaneously with ISIS 416850 in a chronic, lower dose regimen. Antisense oligonucleotide was administered to the monkeys at 5 mg/kg three times per week for week 1; 5 mg/kg twice per week for week 2 and 3; 10 mg/kg three times per week for week 4; and 10 mg/kg twice per week for weeks 5 to 12. Body weights were measured weekly. Blood samples were collected 14 days and 5 days before the start of treatment and subsequently once per week for Factor 11 protein activity analysis in plasma, fibrinogen measurement, PT and aPTT measurements, bleeding times, and measurement of various hematologic factors. On day 85, the monkeys were euthanized by exsanguination while under deep anesthesia, and organs harvested for further analysis.
Blood samples were collected in tubes containing sodium citrate. PT and aPTT were determined in duplicate with an ACL 9000 coagulation instrument (Instrumentation Laboratory, Italy). The results were interpolated on a standard curve of serial dilutions citrated control monkey plasma tested to give a reported result in percent normal.
Prothrombin Time (PT) and Activated Partial Thromboplastin Time (aPTT) were measured using platelet poor plasma (PPP) from monkeys treated with ISIS oligonucleotides. PT and aPTT values are provided in Tables 116 and 117 and are reported as International Normalized Ratio (INR) values. INR values for PT and aPTT were determined by dividing the PT or aPTT value for each experimental group by the PT or aPTT for the PBS treated group. This ratio was then raised to the power of the International Sensitivity Index (ISI) of the tissue factor used. The ISIS oligonucleotide, ISIS 416850, given with the chronic dose regimen is distinguished from the other oligonucleotides with an asterisk (*).

[1] = Bleeding assay, Surgicutt Jr. device (Example 45); type: in vivo, cynomolgus monkeys; set-up: unit not given here
Protocol: as §1
On different days during the treatment period, bleeding assay was performed using a Surgicutt Jr. device (ITC, New Jersey). Monkeys were placed in monkey chair with their arm placed in a steady support. The arm was lightly shaved and a sphygmomanometer was placed on the upper arm. The cuff of the sphygmomanometer was inflated to 40 mm Hg and this pressure was maintained throughout the procedure. The area on the upper arm to be incised was cleansed with an antiseptic swab and the Surgicutt Jr device was used to make an incision over the lateral aspect, volar surface of the forearm, parallel to and 5 cm below the antecubital crease. At the exact moment the incision was made, a stopwatch was started. Every 30 seconds, blood from the incision was blotted out using a blotting paper without directly touching the incision, so that formation of the platelet plug was not disturbed. Blood was blotted out every 30 seconds until blood no longer stained the paper. The stopwatch was then stopped and the bleeding time determined. The sphygmomanometer was removed from the animal's arm, the incision site was antiseptically swabbed and a wound closure strip applied. The ISIS oligonucleotide, ISIS 416850, given with the chronic dose regimen is distinguished from the other oligonucleotides with an asterisk (*).

[2] = Tolerability in CD1 mice: liver function (Example 41); conditions: 50 mg/kg s.c. twice per week for 6 weeks, plasma
[3] = Tolerability in CD1 mice: kidney function, BUN, creatinine (Example 33); conditions: plasma, 50 mg/kg s.c. twice a week
Protocol: A control group of five mice was injected subcutaneously with PBS for 2 weeks. All experimental groups (i.e. ASO treated mice at 2, 4, 6 weeks) were compared to the control group (i.e. PBS, 2 weeks).
To evaluate the effect of ISIS oligonucleotides on kidney function, plasma concentrations of blood urea nitrogen (BUN) and creatinine were measured using an automated clinical chemistry analyzer (Hitachi Olympus AU400e, Melville, N.Y.).

[4] = Tolerability in Sprague-Dawley rats: body weight and organ weight (Example 44); type: in vivo; conditions: 50 mg/kg s.c. twice per week for 6 weeks; for Change in Kidney weight / Change in Liver weight / Change in Spleen weight: end of study
[5] = day 8, chronic dose regimen (*)
[6] = day 15, chronic dose regimen (*)
[7] = day 15, escalating dose regimen
[8] = day 22, chronic dose regimen (*)
[9] = day 22, escalating dose regimen
[10] = day 29, chronic dose regimen (*)
[11] = day 29, escalating dose regimen
[12] = day 36, chronic dose regimen (*)
[13] = day 36, escalating dose regimen
[14] = day 43, chronic dose regimen (*)
[15] = day 43, escalating dose regimen
[16] = day 50, chronic dose regimen (*)
[17] = day 50, escalating dose regimen
[18] = day 57, escalating dose regimen
[19] = day 64, escalating dose regimen
[20] = day 71, escalating dose regimen
[21] = day 78, escalating dose regimen
[22] = day 85, escalating dose regimen
[23] = day −5, chronic dose regimen (*)
[24] = day −5, escalating dose regimen
[25] = day −14, chronic dose regimen (*)
[26] = day −14, escalating dose regimen

For “ISIS 416850: MOE gapmer, nucleobases 1275 to 1318 of SEQ ID NO: 1 (Table 8) (antisense TGCACAGTTTCTGGCAGGCC; MOE gapmer, wing and gap sizes not given here)”, the “PT ratio (INR)” value (blood coagulation; [5]) was 1.03, the “aPTT ratio (INR)” value (blood coagulation; [5]) was 1.12 and the “PT ratio (INR)” value (blood coagulation; day 8, escalating dose regimen) was 1.00. The “aPTT ratio (INR)” value (blood coagulation; day 8, escalating dose regimen) was 1.05, the “PT ratio (INR)” value (blood coagulation; [6]) was 1.06 and the “aPTT ratio (INR)” value (blood coagulation; [6]) was 1.07. The “PT ratio (INR)” value (blood coagulation; [7]) was 1.02, the “aPTT ratio (INR)” value (blood coagulation; [7]) was 1.05 and the “PT ratio (INR)” value (blood coagulation; [8]) was 1.06. For the same substance, the “aPTT ratio (INR)” value (blood coagulation; [8]) was 1.21, the “PT ratio (INR)” value (blood coagulation; [9]) was 1.02 and the “aPTT ratio (INR)” value (blood coagulation; [9]) was 1.13. For the same substance, the “PT ratio (INR)” value (blood coagulation; [10]) was 1.00, the “aPTT ratio (INR)” value (blood coagulation; [10]) was 1.26 and the “PT ratio (INR)” value (blood coagulation; [11]) was 1.03. The “aPTT ratio (INR)” value (blood coagulation; [11]) was 1.13, the “PT ratio (INR)” value (blood coagulation; [12]) was 1.06 and the “aPTT ratio (INR)” value (blood coagulation; [12]) was 1.34. For the same substance, the “PT ratio (INR)” value (blood coagulation; [13]) was 1.02, the “aPTT ratio (INR)” value (blood coagulation; [13]) was 1.26 and the “PT ratio (INR)” value (blood coagulation; [14]) was 1.02. The “aPTT ratio (INR)” value (blood coagulation; [14]) was 1.22, the “PT ratio (INR)” value (blood coagulation; [15]) was 1.01 and the “aPTT ratio (INR)” value (blood coagulation; [15]) was 1.17. For the same substance, the “PT ratio (INR)” value (blood coagulation; [16]) was 0.98, the “aPTT ratio (INR)” value (blood coagulation; [16]) was 1.35 and the “PT ratio (INR)” value (blood coagulation; [17]) was 1.02. For the same substance, the “aPTT ratio (INR)” value (blood coagulation; [17]) was 1.68, the “PT ratio (INR)” value (blood coagulation; [18]) was 1.04 and the “aPTT ratio (INR)” value (blood coagulation; [18]) was 1.59. For the same substance, the “PT ratio (INR)” value (blood coagulation; [19]) was 1.03, the “aPTT ratio (INR)” value (blood coagulation; [19]) was 1.64 and the “PT ratio (INR)” value (blood coagulation; [20]) was 1.03. For the same substance, the “aPTT ratio (INR)” value (blood coagulation; [20]) was 1.76, the “PT ratio (INR)” value (blood coagulation; [21]) was 1.05 and the “aPTT ratio (INR)” value (blood coagulation; [21]) was 1.88. The “PT ratio (INR)” value (blood coagulation; [22]) was 1.04, the “aPTT ratio (INR)” value (blood coagulation; [22]) was 1.99 and the “PT ratio (INR)” value (blood coagulation; [23]) was 1.00. For the same substance, the “aPTT ratio (INR)” value (blood coagulation; [23]) was 1.00, the “PT ratio (INR)” value (blood coagulation; [24]) was 1.00 and the “aPTT ratio (INR)” value (blood coagulation; [24]) was 1.00. The “PT ratio (INR)” value (blood coagulation; [25]) was 1.00, the “aPTT ratio (INR)” value (blood coagulation; [25]) was 1.00 and the “PT ratio (INR)” value (blood coagulation; [26]) was 1.00. For the same substance, the “aPTT ratio (INR)” value (blood coagulation; [26]) was 1.00, the bleeding time [1, 6] was 149 and the bleeding time [1, 7] was 165. The bleeding time [1, 8] was 143, the bleeding time [1, 9] was 151 and the bleeding time [1, 12] was 221. The bleeding time [1, 13] was 137, the bleeding time [1, 14] was 156 and the bleeding time [1, 15] was 216. The bleeding time [1, 18] was 195, the bleeding time [1, 19] was 201 and the bleeding time [1, 21] was 203. For the same substance, the bleeding time [1, 22] was 201, the bleeding time [1, 23] was 93 and the bleeding time [1, 24] was 127. For the same substance, the bleeding time [1, 25] was 177, the bleeding time [1, 26] was 172 and the ALT [2] was 90 IU/L. For the same substance, the AST [2] was 115 IU/L, the Albumin [2] was 3.2 and the Bilirubin [2] was 0.20 mg/dL. For the same substance, the BUN ([3]; 2 weeks) was 25 mg/dL, the Creatinine ([3]; 2 weeks) was 0.13 mg/dL and the BUN ([3]; 4 weeks) was 30 mg/dL. The Creatinine ([3]; 4 weeks) was 0.22 mg/dL, the BUN ([3]; 6 weeks) was 23 mg/dL and the Creatinine ([3]; 6 weeks) was 0.19 mg/dL.

Work on “ISIS 445522: 5-8-5 or 6-8-6 MOE microwalk gapmer (Table 44) (antisense eG*e[5mC]*eA*e[5mC]*eA*dG*dT*dT*dT*d[5mC]*dT*dG*dG*e[5mC]*eA*eG*eG*e[5mC])” yielded an ALT [2] of 51 IU/L, an AST [2] of 110 IU/L and an Albumin [2] of 3.4. For the same substance, the Bilirubin [2] was 0.19 mg/dL.

In the case of “ISIS 445531: 5-8-5 or 6-8-6 MOE microwalk gapmer (Table 44) (antisense eG*eG*e[5mC]*eA*eT*dT*dG*dG*dT*dG*d[5mC]*dA*d[5mC]*eA*eG*eT*eT*eT)”, the ALT [2] is reported as 60 IU/L, the AST [2] is reported as 127 IU/L and the Albumin [2] is reported as 3.2. The Bilirubin [2] was 0.16 mg/dL.

In the case of “ISIS 449708: 3-8-3, 4-8-4, 2-10-2, 3-10-3 or 4-10-4 MOE microwalk gapmer (Table 46) (antisense eA*e[5mC]*eA*dG*dT*dT*dT*d[5mC]*dT*dG*dG*e[5mC]*eA*eG)”, the body weight [4] is reported as 382 g, the “Change in Kidney weight” value [4] is reported as “+40%” and the “Change in Liver weight” value [4] is reported as “+31%”. The “Change in Spleen weight” value [4] was “+259%”.

With “ISIS 449709: 3-8-3, 4-8-4, 2-10-2, 3-10-3 or 4-10-4 MOE microwalk gapmer (Table 46) (antisense eG*e[5mC]*eA*e[5mC]*dA*dG*dT*dT*dT*d[5mC]*dT*dG*dG*d[5mC]*eA*eG*eG*e[5mC])” the body weight [4] was 376 g, the “Change in Kidney weight” value [4] was “+19%” and the “Change in Liver weight” value [4] was “+8%”. The “Change in Spleen weight” value [4] was “+231%”.

For “ISIS 449710: 3-8-3, 4-8-4, 2-10-2, 3-10-3 or 4-10-4 MOE microwalk gapmer (Table 46) (antisense e[5mC]*eA*e[5mC]*dA*dG*dT*dT*dT*d[5mC]*dT*dG*dG*d[5mC]*eA*eG*eG)”, the body weight [4] was 344 g, the “Change in Kidney weight” value [4] was “+50%” and the “Change in Liver weight” value [4] was “+82%”. The “Change in Spleen weight” value [4] was “+302%”.

In the case of “ISIS 449711: 3-8-3, 4-8-4, 2-10-2, 3-10-3 or 4-10-4 MOE microwalk gapmer (Table 46) (antisense eA*e[5mC]*dA*dG*dT*dT*dT*d[5mC]*dT*dG*dG*d[5mC]*eA*eG)”, the body weight [4] is reported as 362 g, the “Change in Kidney weight” value [4] is reported as “+72%” and the “Change in Liver weight” value [4] is reported as “+52%”. The “Change in Spleen weight” value [4] was “+327%”.
